Seven compounds from PMC8147462, “Daldiniaeschsone A, a Rare Tricyclic Polyketide Having a Chromone Unit Fused to a δ-Lactone and Its Symmetrical Biphenyl Dimer, Daldiniaeschsone B, from an Endophytic Fungus Daldinia eschscholtzii SDBR-CMUNKC745” (Journal of Fungi, 2021) can be followed below.

Entries after “also recorded” stand apart in the source; their conditions may differ. Read-outs that look alike come from different tables or passages of the source.

One data set addresses T1, α-glucosidase (Saccharomyces cerevisiae, UniProt P53341).
T1 construct: purchased Sigma, St. Louis, MO, USA G5003
The data set is described as follows: biochemical. Particulars: for inhibition at 200 µg/mL: read-out: α-Glucosidase Inhibitory Activity % Inhibition at 200 µg/mL. Here is the method: A colorimetric α-glucosidase assay was carried out by the previously described procedure. Briefly, the sample solution was dissolved in DMSO after the solutions were diluted with a phosphate buffer (100 mM KH2PO4, pH 6.9) become DMSO (10%, v/v) concentration. The substrate, p-nitrophenyl α-D-glucoside (Sigma, St. Louis, USA, CAS No. N1377), (c 1.5 mM), was prepared by dissolving with phosphate buffer. The tested samples (50 uL) were combined with 100 μL of the α-glucosidase enzyme solution (0.35 U/mL, Sigma, St. Louis, MO, USA, CAS. No. G5003), then the mixture was pre-incubated for 10 min at 37 °C. The enzymatic reaction was started by applying substrate (100 μL, c 1.5 mM) into the mixture and incubated at 37 °C for 20 min. The reaction was subsequently terminated by the addition of Na2CO3 (1 mL, c 1 M). The absorption was immediately measured at 405 nm by determining the quantity of p-nitrophenol released from the substrate.

Data set [1] concerns NO production in RAW 264.7 cells. As to the kind of experiment: nitric oxide (NO) production inhibitory activity in LPS-treated RAW 264.7 cells (Griess reaction). The format is cell-based. Particulars: for inhibition at 50 µg/mL: read-out: Anti-Inflammatory (NO Production Inhibitory Activity) % Inhibition at 50 µg/mL; for NO production inhibitory activity (in words): RAW 264.7 macrophage cells. As for the experimental part:
The NO inhibitory activity was performed using the same procedure as previously reported. RAW 264.7 (American Type Culture Collection, Manassas, VA, USA) were seeded at 4 × 10^4 cells/well in 96 well plates suspended in 100 μL DMEM supplemented with 10% FBS and incubated at 37 °C 5% CO2 overnight. Cells were incubated with 1 µg/mL LPS for 1 h and treated with various concentrations of sample compounds and vehicle control (DMSO) for 24 h. After 24 h, the NO production inhibitory was determined in the culture supernatant using the Griess reaction by adding 100 µL of Griess reagent in a 96 well plate for 10 min. The determination of nitric oxide was measured at 570 nm with Biochrom EZ Read 400 ELISA microplate reader (Biochrom Ltd., Cambridge, United Kingdom). Additionally, the data were presented as IC50 which was calculated with GraphPad Prism 6.0 software.
Background: Nitrite, measured by Griess reagent, commonly stands in for NO production.

Data set [2] in a line: cytotoxicity / cell viability MTT assay. The format is cell-based. The conditions noted are these: mouse, RAW 264.7 cells, RAW 264.7, 24 h. Here is the method: (§1) Cell viability studies were evaluated by the MTT (3-[4,5-dimethylthiazol-2-yl]-2,5-diphenyl tetrazolium bromide) assay. In brief, RAW 264.7 cells (5 × 10^4 cells/well) were cultured and incubated in 96-well plates for 24 h. The samples were prepared in DMSO at different concentrations ([…]). The cells were then treated with samples in DMEM medium (10% FBS, […] streptomycin, and 100 IU/mL penicillin at 37 °C in a 5% CO2) for 24 h. The medium was then removed and each well was filled with fresh DMEM containing 0.5 mg/mL MTT solution for 4 h at 37 °C in a 5% CO2. After that, the medium was removed, and the formazan precipitate was dissolved in DMSO [21]. The absorbance was measured at 550 nm on a microplate reader. All processes were performed in triplicate.
For orientation: Tetrazolium dyes change colour on reduction, which living cells bring about.

Another data set deals with RAW 264.7 cells. As to the kind of experiment: cytotoxicity / cell viability MTT assay. In kind it is cell-based. As for the experimental part: as §1
Setting [3] is: Mus musculus, RAW264.7, LPS 1 µg/mL, 24 h.
Setting [4] is: read-out: α-Glucosidase Inhibitory Activity IC50.

The IC50 is the midpoint of a concentration-inhibition curve. By viability is commonly meant a per cent measure of how many cells are alive, often set against a control. Higher therefore signals better survival.

T1 sequence (P53341 whole entry): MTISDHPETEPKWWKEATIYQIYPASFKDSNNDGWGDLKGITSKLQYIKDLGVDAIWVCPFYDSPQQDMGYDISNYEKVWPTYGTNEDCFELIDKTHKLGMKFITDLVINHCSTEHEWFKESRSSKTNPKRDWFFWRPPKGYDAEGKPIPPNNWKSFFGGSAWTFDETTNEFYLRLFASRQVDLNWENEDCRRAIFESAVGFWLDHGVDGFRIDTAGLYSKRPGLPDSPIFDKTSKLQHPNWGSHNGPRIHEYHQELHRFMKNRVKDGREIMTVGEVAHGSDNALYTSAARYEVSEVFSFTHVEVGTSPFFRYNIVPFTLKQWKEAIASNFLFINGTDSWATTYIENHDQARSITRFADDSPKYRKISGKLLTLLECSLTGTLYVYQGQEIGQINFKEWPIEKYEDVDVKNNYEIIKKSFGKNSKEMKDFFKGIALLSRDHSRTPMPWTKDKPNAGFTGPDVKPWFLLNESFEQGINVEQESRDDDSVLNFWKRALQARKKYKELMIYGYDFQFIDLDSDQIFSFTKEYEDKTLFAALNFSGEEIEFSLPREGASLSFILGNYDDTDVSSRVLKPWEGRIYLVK

As to `COC(=O)C[C@@]12OC(=O)C[C@@H](C)[C@@H]1Oc1cccc(O)c1C2=O` (relative stereo) [Compound 1, Daldiniaeschsone A], on α-glucosidase, the concentration for half-maximal inhibition (IC50) worked out at 160 ± 110 µM and the inhibition at 200 µg/mL was 98.7%. The “Anti-Inflammatory (NO Production Inhibitory Activity) IC50” value in data set [1] (LPS 1 µg/mL, 24 h) was “inactive”. For the same compound, the inhibition at 50 µg/mL in data set [1] (setting [3]) was determined as 26.5%. Further, the “NO production inhibitory activity (in words)” value in data set [1] was “no NO production inhibitory activities”. For the same compound, the viability at 24 h, 50 µg/mL in data set [2] is > 75%. Moreover, in the data set on RAW 264.7 cells, the “cytotoxicity against RAW 264.7 cells at 50 µg/mL (in words)” value is on record as “without toxicity; also recorded: no cytotoxicity”.

In the case of `C[C@H]1O[C@H](O[C@H]2[C@H](O)[C@@H](O)[C@@H](O[C@H]3[C@H](O)[C@@H](O)C(O)O[C@@H]3CO)O[C@@H]2CO)[C@H](O)[C@@H](O)[C@@H]1N[C@H]1C=C(CO)[C@@H](O)[C@H](O)[C@H]1O` (some centres unmarked) [Acarbose, reference compound], the inhibition at 200 µg/mL at α-glucosidase came to 95.6%.

For `COC(=O)C[C@@]12OC(=O)C[C@@H](C)[C@@H]1Oc1ccc(-c3ccc4c(c3O)C(=O)[C@]3(CC(=O)OC)OC(=O)C[C@@H](C)[C@@H]3O4)c(O)c1C2=O` [Compound 2, Daldiniaeschsone B], on α-glucosidase, the IC50 was determined as 230 µM and the inhibition at 200 µg/mL came to 96.8%. Also, the “Anti-Inflammatory (NO Production Inhibitory Activity) IC50” value in data set [1] (LPS 1 µg/mL, 24 h) was “inactive”. Besides, in data set [1] (setting [3]), the inhibition at 50 µg/mL was 36.9%. In addition, the “NO production inhibitory activity (in words)” value in data set [1] was “no NO production inhibitory activities”. Moreover, the “cytotoxicity against RAW 264.7 cells at 50 µg/mL (in words)” value in the data set on RAW 264.7 cells is reported as “without toxicity; also recorded: no cytotoxicity”.

For `O=C1CC[C@H](O)c2cccc(O)c21` [Compound 3, (+)-regiolone], the inhibition at 200 µg/mL at α-glucosidase is 97.8%. The 50% inhibitory concentration (IC50) on α-glucosidase (setting [4]) turned out to be 850 ± 1190 µM.

In the case of `O=C1C[C@@H](O)[C@@H](O)c2cccc(O)c21` [Compound 4, (+)-3,4-dihydro-3,4,8-trihydroxy-1(2H)-naphthalenone], the inhibition at 200 µg/mL at α-glucosidase amounted to 97.8%. The IC50 at α-glucosidase (setting [4]) stood at 550 ± 1330 µM.

Turning to `C[C@H]1Cc2cccc(O)c2C(=O)O1` [Compound 5, (+)-mellein], on α-glucosidase, the inhibition at 200 µg/mL amounted to 97.5%. Further, the IC50 on α-glucosidase (setting [4]) was determined as 760 ± 90 µM.

In the case of `COc1ccc2c(c1)c(CC(=O)O)c(C)n2C(=O)c1ccc(Cl)cc1` [Indomethacin, reference compound], in data set [1] (setting [3]), the inhibition at 50 µg/mL came to 71%. The IC50 in data set [1] (Mus musculus, RAW264.7, LPS 1 µg/mL, 24 h, read-out: Anti-Inflammatory (NO Production Inhibitory Activity) IC50) is 19.6 ± 0.62 µM. The compound further registered a viability at 24 h, 50 µg/mL in data set [2] of 85 ± 2.92%.
